This experiment concerns the target T1, Interleukin-1 receptor-associated kinase 4 (Homo sapiens, UniProt Q9NWZ3).
T1 sequence (Q9NWZ3 whole entry): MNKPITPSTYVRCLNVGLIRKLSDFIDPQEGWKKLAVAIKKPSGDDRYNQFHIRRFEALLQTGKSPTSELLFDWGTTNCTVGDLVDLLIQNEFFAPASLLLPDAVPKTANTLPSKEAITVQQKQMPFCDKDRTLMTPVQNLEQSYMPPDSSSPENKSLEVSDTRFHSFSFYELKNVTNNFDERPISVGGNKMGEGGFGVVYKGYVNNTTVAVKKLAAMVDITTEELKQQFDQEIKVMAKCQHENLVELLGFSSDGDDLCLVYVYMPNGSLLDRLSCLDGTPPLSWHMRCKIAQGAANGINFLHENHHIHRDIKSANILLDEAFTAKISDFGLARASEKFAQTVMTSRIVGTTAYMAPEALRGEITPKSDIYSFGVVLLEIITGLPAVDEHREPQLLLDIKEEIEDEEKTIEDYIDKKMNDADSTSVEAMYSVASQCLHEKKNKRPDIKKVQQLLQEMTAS
The experiment is described as follows: Kinase Assay: The kinase activity of IRAK-4 is determined by its ability to catalyze the phosphorylation of a fluorescent polypeptide substrate. The extent of phosphorylation is measured using the IMAP technology (Molecular Devices) where the phosphorylated fluorescent substrate binds to the large M(III)-based nanoparticles which reduces the rotational speed of the substrate and thus increases its fluorescent polarization (FP). 20 μl reaction mixture contains 10 mM TriHCl, pH 7.2, 0.5 nM GST tagged IRAK-4 (SignalChem), 100 nM fluorescent peptide substrate (RP7030, Molecular Devices), 100 μM ATP, 1 mM DTT, 1 mM MgCl2, and 0.01% Tween 20. The reaction is initiated by the addition of ATP. After incubation for 30 minutes at 25° C., 60 μl of Progressive IMAP Reagent (Molecular Devices) is added to stop the reaction. Change in RP7030's FP is determined by a FP reader (Analyst HT, LH, BioSystems).
As a reminder, the IC50 is the concentration at which inhibition is half-maximal. As to `Cc1cnc(-n2nc(C3CCN(S(C)(=O)=O)CC3)cc2NC(=O)c2cnn3cccnc23)cn1`, the IC50 was over 1 µM.

For `Cc1ccc(-n2nc(C3CCCN(Cc4ccn[nH]4)C3)cc2NC(=O)c2cnn3cccnc23)cc1` (configuration not stated), the concentration for half-maximal inhibition (IC50) is under 0.1 µM.

Regarding `CCn1nccc1CN1CCCC(c2cc(NC(=O)c3cnn4cccnc34)n(-c3ccc(C)cc3)n2)C1` (configuration not stated), the IC50 was under 1 µM.

Take `Cc1ccc(-n2nc(-c3ccnc(CN4CCCCC4)c3)cc2NC(=O)c2cnn3cccnc23)cc1`: the IC50 was under 0.1 µM.

`Cc1ccc(-n2nc(C3CCCN(Cc4cccnc4)C3)cc2NC(=O)c2cnn3cccnc23)cc1` (configuration not stated): the IC50 was under 1 µM.

For `Cc1ccc(-n2nc(C3CCN(S(=O)(=O)C4CC4)CC3)cc2NC(=O)c2cnn3cccnc23)nc1`, the IC50 was under 0.1 µM.

As to `CS(=O)(=O)N1CCC(c2cc(NC(=O)c3cnn4cccnc34)n(-c3ccc(CN)cn3)n2)CC1`, the IC50 was under 0.1 µM.

In the case of `Cc1ccc(-n2nc(C3CCCN(Cc4cccc5c4CNC5=O)C3)cc2NC(=O)c2cnn3cccnc23)cc1` (configuration not stated), the IC50 was under 0.1 µM.

Take `C#Cc1cnc2c(C(=O)Nc3cc(C4CCN(S(C)(=O)=O)CC4)nn3-c3ccc(C)cn3)cnn2c1`: the IC50 was under 0.1 µM.

For `Cc1ccc(-n2nc(C3CCCN(Cc4ncco4)C3)cc2NC(=O)c2cnn3cccnc23)cc1` (configuration not stated), the IC50 was under 1 µM.

Take `Cc1ccc(-n2nc(C3CCCN(Cc4ccc5c(c4)C(=O)NC5)C3)cc2NC(=O)c2cnn3cccnc23)cc1` (configuration not stated): the IC50 was under 1 µM.

With `Cc1ccc(-n2nc(C3CCN(C4CCC(C(F)(F)F)CC4)CC3)cc2NC(=O)c2cnn3cccnc23)cc1` (configuration not stated), the IC50 is under 0.1 µM.

For the molecule `Cc1ccc(-n2nc(C3CCN(C4CNC4)CC3)cc2NC(=O)c2cnn3cccnc23)cc1`, the IC50 was under 1 µM.

Consider `CCOC(=O)N1CCC(N2CCC(c3cc(NC(=O)c4cnn5cccnc45)n(-c4ccc(C)cc4)n3)CC2)CC1`, for which the IC50 is under 0.1 µM.

With `Cc1ccc(-n2nc(C3CCN(S(C)(=O)=O)CC3)cc2NC(=O)c2cnn3cc(Br)cnc23)nc1`, the IC50 is under 0.1 µM.

For the molecule `Cc1ccc(-n2nc(C3CCN(C)CC3)cc2NC(=O)c2cnn3cccnc23)c(F)c1`, the IC50 was under 1 µM.

Turning to `Cc1ccc(-n2nc(C3CCN(C(C)C(C)C)CC3)cc2NC(=O)c2cnn3cccnc23)cc1` (configuration not stated), the IC50 is under 1 µM.

For the molecule `Cc1ccc(-n2nc(C3CCCN(CC4CCOC4)C3)cc2NC(=O)c2cnn3cccnc23)cc1` (configuration not stated), the IC50 was under 1 µM.

As to `CS(=O)(=O)N1CCC(c2cc(NC(=O)c3cnn4cccnc34)n(-c3ccccc3)n2)CC1`, the IC50 is under 1 µM.

As to `Cc1ccc(-n2nc(C3CCCN(Cc4cccnc4F)C3)cc2NC(=O)c2cnn3cccnc23)cc1` (configuration not stated), the IC50 was under 1 µM.

For `Cc1ccc(-n2nc(C3CCCN(Cc4ccccn4)C3)cc2NC(=O)c2cnn3cccnc23)cc1` (configuration not stated), the IC50 was under 1 µM.

Take `COc1ccc(-n2nc(C3CCN(S(C)(=O)=O)CC3)cc2NC(=O)c2cnn3cccnc23)nc1`: the IC50 is under 1 µM.

For the molecule `COc1ccc(CN2CCC(c3cc(NC(=O)c4cnn5cccnc45)n(-c4ccc(C)cc4)n3)CC2)cn1`, the IC50 is under 1 µM.

Take `CNC(C)c1ccc(-n2nc(C3CCN(S(C)(=O)=O)CC3)cc2NC(=O)c2cnn3cccnc23)nc1` (configuration not stated): the IC50 is under 1 µM.

Regarding `Cc1ccc(-n2nc(C3CCN(S(C)(=O)=O)C3)cc2NC(=O)c2cnn3cccnc23)cc1` (configuration not stated), the IC50 is under 1 µM.

Consider `Cc1ccc(-n2nc(C3CCCN(Cc4cnc(N(C)C)s4)C3)cc2NC(=O)c2cnn3cccnc23)cc1` (configuration not stated), for which the IC50 is under 1 µM.

On to `Cc1ccc(-n2nc(-c3cncc(N4CCN(C)CC4)c3)cc2NC(=O)c2cnn3cccnc23)cc1`, for which the IC50 is under 1 µM.

As for `COc1ncc(CN2CCCC(c3cc(NC(=O)c4cnn5cccnc45)n(-c4ccc(C)cc4)n3)C2)cn1` (configuration not stated), the IC50 is under 1 µM.

With `Cc1ccc(-n2nc(C3CCCN(Cc4ccncc4)C3)cc2NC(=O)c2cnn3cccnc23)cc1` (configuration not stated), the IC50 was under 1 µM.

With `COc1ccc(CN2CCCC(c3cc(NC(=O)c4cnn5cccnc45)n(-c4ccc(C)cc4)n3)C2)cn1` (configuration not stated), the IC50 is under 1 µM.

As to `CS(=O)(=O)N1CCC(c2cc(NC(=O)c3cnn4cccnc34)n(-c3ccc(CO)cn3)n2)CC1`, the IC50 is under 0.1 µM.

With `Cc1ccc(-n2nc(C3CCN(C(C)C(=O)N4CCCCC4)CC3)cc2NC(=O)c2cnn3cccnc23)cc1` (configuration not stated), the IC50 is under 1 µM.

Take `COc1ccc(-n2nc(C3CCNCC3)cc2NC(=O)c2cnn3cc(C4CC4)cnc23)cc1`: the IC50 is under 1 µM.

As for `Cc1ccc(-n2nc(C3CCCN(Cc4ccc(S(C)(=O)=O)cc4)C3)cc2NC(=O)c2cnn3cccnc23)cc1` (configuration not stated), the IC50 was under 0.1 µM.

For `O=C(Nc1cc(C2CCN(C3CCC3)CC2)nn1-c1ccc(C2CC2)cn1)c1cnn2cccnc12`, the IC50 was under 0.1 µM.

Consider `Cc1ccc(-n2nc(-c3ccc(S(=O)(=O)N4CCOCC4)cc3)cc2NC(=O)c2cnn3cccnc23)cc1`, for which the IC50 is under 0.1 µM.

For the molecule `Cc1cnc(-n2nc(C3CCNCC3)cc2NC(=O)c2cnn3cccnc23)nc1`, the IC50 was over 1 µM.

As for `Cc1ccc(-n2nc(C3CCN(CC(C)C)CC3)cc2NC(=O)c2cnn3cccnc23)nc1`, the IC50 is under 0.1 µM.

For the molecule `Cc1ccc(-n2nc(C3CCN(C(C)c4cccc(F)n4)CC3)cc2NC(=O)c2cnn3cccnc23)cc1` (configuration not stated), the IC50 was under 1 µM.

For `CC(=O)N1CCC(N2CCC(c3cc(NC(=O)c4cnn5cccnc45)n(-c4ccc(C)cc4)n3)CC2)CC1`, the IC50 was under 0.1 µM.

As to `Cc1ccc(-n2nc(C3CCCN(Cc4ccc(F)cn4)C3)cc2NC(=O)c2cnn3cccnc23)cc1` (configuration not stated), the IC50 is under 1 µM.

On to `Cc1ccc(-n2nc(C3CCN(S(C)(=O)=O)CC3)cc2NC(=O)c2cnn3cc(C)cnc23)cc1`, for which the IC50 was under 1 µM.

On to `CS(=O)(=O)N1CCC(c2cc(NC(=O)c3cnn4cccnc34)n(CCN)n2)CC1`, for which the IC50 was under 1 µM.

In the case of `Cc1ccc(-n2nc(C3CCCN(Cc4cn[nH]c4)C3)cc2NC(=O)c2cnn3cccnc23)cc1` (configuration not stated), the IC50 is under 1 µM.

In the case of `Cc1ccc(-n2nc(C3CCN(C(C)C(=O)N4CCCC4)CC3)cc2NC(=O)c2cnn3cccnc23)cc1` (configuration not stated), the IC50 was under 0.1 µM.

As to `Cc1ccc(-n2nc(C3CCN(S(C)(=O)=O)CC3)cc2NC(=O)c2cnn3cc(Br)cnc23)cc1`, the IC50 is under 1 µM.

Regarding `Cc1ccc(-n2nc(C3CCN(C4CCN(C5CC5)CC4)CC3)cc2NC(=O)c2cnn3cccnc23)cc1`, the IC50 was under 1 µM.

These data come from ChEMBL document CHEMBL3886319, “Amidopyrazole inhibitors of interleukin receptor-associated kinases” (2015).
